From US6875773B1, “Combination therapy for treatment of FIV infection” (priority 1998, dated 2005)

Columns and labels:
FIV = details: background statement, no reference given; cited from earlier work
FIVBang [1] = assay: Anti-FIV activity (RT activity) in primary cat PBMC infected with FIVBang; type: cell-based, Feline immunodeficiency virus; details: for effect of adding the protease inhibitor to the AZT/3TC combination on antiviral activity: FIVBang; for FIV replication in PBMC (RT activity), result in words: FIVBang 100 TCID50, drug added immediately before inoculation, nontoxic doses
Procedure: Nucleoside analogue and PI doses were 0.1 μM in Experiment 1 (panel A) and 0.05 μM and 0.01 μM, respectively, in Experiment 2 (panel B).
(§1) As a means to simulate in vivo conditions, primary peripheral blood mononuclear cells (PBMC) from specific pathogen free (SPF) cats were next used as the indicator cells. Primary PBMC isolated by ficoll hypaque method were stimulated with concanavalin A for 3 days and cultured for an additional 2 weeks before their use in drug studies (Staszewski, 1995). Antiretroviral drug(s) were added to the PBMC cultures (1×10^6 cells/ml) immediately before FIVBang, (subtype B) or FIVUK-8(subtype A) inoculation of 100 50% tissue culture infectious dose (TCID50).

FIVPet = assay: Anti-FIV activity (RT activity in supernatant) in feline T-cell line chronically infected with FIVPet (FL-4 cells); type: cell-based, Feline immunodeficiency virus; details: nontoxic doses
Procedure: (§2) The antiviral activity of the drugs at noncytotoxic doses were evaluated in feline T-cell lines chronically infected with either FIVPet (subtype A strain) (panel A), or FIVBang (subtype B strain) (panel B). The RT data are presented as % control, whereby % control represents RT mean of triplicate treated cultures divided by RT mean of triplicate untreated cultures and multiplied by 100. The RT data on harvest days at 6, 9, and 12 are shown.
(§3) In the first set of in vitro studies, feline T-cell lines chronically infected with FIVPet, (FL-4 cells) or FIVBang, (FIVBang/FeT-J cells) at 2×10^5 cells/ml were treated for 3 weeks with a single drug or various combinations of AZT, 3TC, an FIV protease inhibitor (FIV-PI; Hoescht-Bayer HBY-793), and HIV protease inhibitors (HIV-PI) (FIGS. 1A and 1B). Saquinavir (SQV) and Indinavir (IDV) were used as the HIV-PIs. Culture supernatants were harvested and the cells were resuspended in fresh culture media containing appropriate drug(s) at […]. Viral replication was determined by measuring the levels of reverse transcriptase (RT) activity in the culture supernatants (Rey et al., 1984). Drug toxicity in these cultures were monitored by viability and absolute cell count analyses using trypan blue exclusion method (Mishell et al., 1980).
(§4) Single and combination drug doses which were determined to be nontoxic to the test cells were used in these studies.

FIVBang [2] = assay: Anti-FIV activity (RT activity in supernatant) in feline T-cell line chronically infected with FIVBang (FIVBang/FeT-J cells); type: cell-based, Feline immunodeficiency virus; details: nontoxic doses
Procedure: as §2, §3, §4

FIVUK-8 = assay: Anti-FIV activity (RT activity) in primary cat PBMC infected with FIVUK-8; type: cell-based, Feline immunodeficiency virus; details: for effect of adding the protease inhibitor to the AZT/3TC combination on antiviral activity: FIVUK-8; for FIV replication in PBMC (RT activity), result in words: FIVUK-8 100 TCID50, drug added immediately before inoculation, nontoxic doses
Procedure: Nucleoside analogue and P1 doses were 0.1 μM and 0.01-0.5 μM, respectively, in Experiment 1 (panel A) and 0.05 μM and 0.01-0.5 μM respectively, in Experiment 2 (panel B).
as §1

HIV protease = HIV protease (Human immunodeficiency virus type 1 group M subtype B, UniProt P04585); details: Dunn et al., 1994; Wlodawer et al., 1995; cited from earlier work
FIV protease = FIV protease (Feline immunodeficiency virus, UniProt P16088); details: Dunn et al., 1994; Wlodawer et al., 1995; cited from earlier work

## Cc1c(O)cccc1C(=O)N[C@@H](CSc1ccccc1)[C@H](O)CN1C[C@H]2CCCC[C@H]2C[C@H]1C(=O)NC(C)(C)C [Nelfinavir]
FIV
  FIV replication in PBMC in vitro: do not inhibit FIV replication

## CC(C)(C)NC(=O)[C@@H]1C[C@@H]2CCCC[C@@H]2CN1C[C@@H](O)[C@H](Cc1ccccc1)NC(=O)[C@H](CC(N)=O)NC(=O)c1ccc2ccccc2n1 [SQV, Saquinavir]
FIV
  FIV replication in PBMC in vitro: do not inhibit FIV replication
FIVBang [1]
  effect of adding the protease inhibitor to the AZT/3TC combination on antiviral activity: did not enhance the antiviral activity of the AZT/3TC combination
  FIV replication in PBMC (RT activity), result in words: lack of anti-FIV activity
FIVPet
  anti-FIV activity (RT activity), result in words: neither SQV nor IDV alone had significant anti-FIV effect
FIVBang [2]
  anti-FIV activity (RT activity), result in words: neither SQV nor IDV alone had significant anti-FIV effect
FIVUK-8
  effect of adding the protease inhibitor to the AZT/3TC combination on antiviral activity: did not enhance the antiviral activity of the AZT/3TC combination
  FIV replication in PBMC (RT activity), result in words: lack of anti-FIV activity

## CC(C)(C)NC(=O)[C@@H]1CN(Cc2cccnc2)CCN1C[C@@H](O)C[C@@H](Cc1ccccc1)C(=O)N[C@H]1c2ccccc2C[C@H]1O [IDV, Indinavir]
FIV
  FIV replication in PBMC in vitro: do not inhibit FIV replication
FIVBang [1]
  effect of adding the protease inhibitor to the AZT/3TC combination on antiviral activity: did not enhance the antiviral activity of the AZT/3TC combination
  FIV replication in PBMC (RT activity), result in words: lack of anti-FIV activity
FIVPet
  anti-FIV activity (RT activity), result in words: neither SQV nor IDV alone had significant anti-FIV effect
FIVBang [2]
  anti-FIV activity (RT activity), result in words: neither SQV nor IDV alone had significant anti-FIV effect
FIVUK-8
  effect of adding the protease inhibitor to the AZT/3TC combination on antiviral activity: did not enhance the antiviral activity of the AZT/3TC combination
  FIV replication in PBMC (RT activity), result in words: lack of anti-FIV activity

## CC(C)[C@H](NC(=O)[C@H](Cc1cccc2ccccc12)CS(=O)(=O)C(C)(C)C)C(=O)N[C@@H](Cc1ccccc1)[C@H](O)[C@H](O)[C@H](Cc1ccccc1)NC(=O)[C@@H](NC(=O)[C@H](Cc1cccc2ccccc12)CS(=O)(=O)C(C)(C)C)C(C)C [FIV-PI]
FIVBang [1]
  FIV replication in PBMC (RT activity), result in words: inhibited FIV replication
FIVPet; treated for 3 weeks
  inhibition of RT activity / FIV replication: 70-80%
FIVBang [2]; treated for 3 weeks
  inhibition of RT activity / FIV replication: 70-80%
HIV protease
  binding to HIV protease: efficiently binds
FIV protease
  binding to FIV protease: efficiently binds
FIVUK-8
  FIV replication in PBMC (RT activity), result in words: inhibited FIV replication

## CC(C)c1nc(CN(C)C(=O)N[C@H](C(=O)N[C@@H](Cc2ccccc2)C[C@H](O)[C@H](Cc2ccccc2)NC(=O)OCc2cncs2)C(C)C)cs1 [Ritonavir]
FIV
  FIV replication in PBMC in vitro: do not inhibit FIV replication
